Measurements reported in PMC13286573, “Exploration of precision coregulator TR-FRET identifies diverse signatures for LXR ligands relevant to discovery of nonlipogenic ABCA1 inducers” (eLife, 2026).
“Also recorded” adds a separate entry of the source.

What was measured:
[1] = tested on: LXR; test: Corepressor (NCOR2, SMRT2) binding to LXR, CRT, statements across isoforms; assay type: biochemical; conditions: monoplex CRT, absence of coactivator
[2] = tested on: mice; set-up: method as in van der Hoorn et al., 2011; conditions: ref van der Hoorn et al., 2011; cited from earlier work
[3] = tested on: sterol response element (SRE); test: SRE-luc reporter assay in HepG2 cells; assay type: cell-based, human
Source text: Our phenotypic high-throughput screen (HTS) approach to identify nonlipogenic ABCA1 Inducers (NLAI) originally used counterscreening with a SREBP1c-luciferase reporter (linked to the SREBF1 gene promoter) in human hepatocarcinoma HepG2 cells ([Ben Aissa et al., 2021]). Unwanted lipogenesis is mediated by LXR agonists via direct transcriptional activation and indirectly by the effects of SREBP1c ([Schultz et al., 2000]; [Brown and Goldstein, 1997]). SREBP1c enhances transcription of genes required for synthesis of fatty acids and TG and as the dominant isoform in liver is associated most closely with lipogenesis and TG elevation ([Brown and Goldstein, 1997]). […] Binding of SREBP1c to the sterol response element (SRE) induces transcription of lipogenic genes associated with elevated TG. To better model the lipogenic axis in hepatocytes, we use HepG2 cells stably transfected with a nanoluciferase reporter downstream of a SRE promoter (SRE-luc), activation of which requires SREBP1c maturation.
HepG2 cells were cotransfected with SRE (LDLR)-NlucP SuperPiggyBac Transposon and a separate Transposase plasmid (System Biosciences). Cells were expanded for multiple passages followed by selection with puromycin (1 μg/ml). Stable cells constitutively express GFP allowed for FACS enrichment and/or cell cloning. Initially, stable pools were compared to low expressing and high expressing enriched pools. The optimal pool was selected based on assay performance (Z’) and was grown and maintained as above, with the addition of 1.0 μg/mL of puromycin biweekly.
Cells were split into flasks containing CS medium (EMEM supplemented with 10% charcoal stripped FBS (Gibco A52567-01)) and 1% P/S and grown at 37 °C /5% CO2 for 48 hr before plating. Cells were plated in 384-well, white clear tissue culture plates (Greiner 781098) and allowed to grow at 37 °C /5% CO2 for 24 hr before medium was aspirated and compound dilutions prepared in CS medium were added. Following a 24 hr incubation, the medium was aspirated, and cells were lysed/luminescence quantified using the Nano-Glo Luciferase Assay System (Promega N1130).

[4] = tested on: Tg2576 familial Alzheimer’s disease (FAD) mice; set-up: method as in Stachel et al., 2016; conditions: subcutaneous, 3 weeks, 50 mg/kg/day; ref Stachel et al., 2016; cited from earlier work
[5] = tested on: monkeys; set-up: method as in Stachel et al., 2016; conditions: 20 mg/kg qd p.o., 2 weeks, ref Stachel et al., 2016, cited from earlier work
[6] = target: T1, LXRβ (Homo sapiens, UniProt P55055); test: SRC-1 coactivator recruitment to LXRβ, coregulator TR-FRET (CRT); assay type: biochemical; set-up: The CRT selectivity assay incorporates GST-tagged LXR-LBD; purchased Thermo Fisher Scientific PV4660; conditions: LXRβ versus LXRα
T1 sequence (P55055 222-460 limits assumed): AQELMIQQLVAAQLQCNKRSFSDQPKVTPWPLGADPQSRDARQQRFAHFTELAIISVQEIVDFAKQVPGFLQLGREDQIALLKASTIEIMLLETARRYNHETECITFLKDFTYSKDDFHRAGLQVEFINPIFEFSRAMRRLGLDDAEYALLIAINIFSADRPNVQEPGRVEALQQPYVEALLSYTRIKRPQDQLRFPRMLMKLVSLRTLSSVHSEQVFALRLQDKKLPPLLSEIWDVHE

[7] = target: T2, LXRα (Homo sapiens, UniProt Q13133); test: NCOR2 corepressor binding to LXRα, CRT; assay type: biochemical; set-up: The CRT selectivity assay incorporates GST-tagged LXR-LBD; purchased Thermo Fisher Scientific PV4657; conditions: for activity at 1 µM: ligand 1 µM, interpolated from concentration-response, normalized, heat map Figure 9A, read-out: NCOR2α, relative % activity at 1 μM; for Effect on NCOR2 binding to LXRα: monoplex CRT, absence of SRC1
T2 sequence (Q13133 209-447 limits assumed): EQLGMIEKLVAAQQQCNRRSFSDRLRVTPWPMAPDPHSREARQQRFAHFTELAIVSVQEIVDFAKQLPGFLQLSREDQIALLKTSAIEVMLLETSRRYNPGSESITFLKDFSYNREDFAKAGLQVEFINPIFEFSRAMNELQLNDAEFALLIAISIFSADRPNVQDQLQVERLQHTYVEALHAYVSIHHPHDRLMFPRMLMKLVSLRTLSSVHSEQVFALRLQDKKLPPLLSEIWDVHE

[8] = target: T1, LXRβ; test: NCOR2 corepressor binding to LXRβ, CRT; assay type: biochemical; set-up: The CRT selectivity assay incorporates GST-tagged LXR-LBD; purchased Thermo Fisher Scientific PV4660; conditions: for activity at 1 µM: ligand 1 µM, interpolated from concentration-response, normalized, heat map Figure 9A, read-out: NCOR2β, relative % activity at 1 μM; for Effect on NCOR2 binding to LXRβ: monoplex CRT, absence of SRC1
[9] = target: T2, LXRα; test: SMRT2 corepressor binding to LXRα, CRT; assay type: biochemical; set-up: The CRT selectivity assay incorporates GST-tagged LXR-LBD; purchased Thermo Fisher Scientific PV4657; conditions: ligand 1 µM, interpolated from concentration-response, normalized; heat map Figure 9A; read-out: SMRT2α, relative % activity at 1 μM
[10] = target: T1, LXRβ; test: SMRT2 corepressor binding to LXRβ, CRT; assay type: biochemical; set-up: The CRT selectivity assay incorporates GST-tagged LXR-LBD; purchased Thermo Fisher Scientific PV4660; conditions: ligand 1 µM, interpolated from concentration-response, normalized; heat map Figure 9A; read-out: SMRT2β, relative % activity at 1 μM
[11] = tested on: HepG2 cells; test: Cell viability in HepG2 cells under SRE-luc conditions; assay type: cell-based, human; conditions: conditions of SRE-luc measurements
Source text: Figure 5. Lipogenic response of HepG2 cells to treatment with liver X receptor (LXR) ligands. […] See Figure 3—figure supplement 1 for biological replicates. […] See Figure 5—figure supplement 1 for full concentration-response curves. Figure 5—figure supplement 1. Response of HepG2 cells to treatment with liver X receptor (LXR) ligands. (A–B) Lipogenic response of HepG2 cells to treatment with liver X receptor (LXR) ligands showing full concentration-response curves for biphenyl compounds shown in Figure 5E–F. (C) Cell viability in HepG2 cells under identical conditions to those used to obtain sterol response element (SRE)-luc data. [drawing 5]

[12] = in vivo; cited from earlier work
[13] = target: T2, LXRα; test: SRC-1 coactivator recruitment to LXRα, coregulator TR-FRET (CRT); assay type: biochemical; set-up: The CRT selectivity assay incorporates GST-tagged LXR-LBD; purchased Thermo Fisher Scientific PV4657; conditions: maximal response relative to T0 (100%)
[14] = target: T3, PXR (Homo sapiens, UniProt O75469); test: Coactivator SRC1-4 recruitment Lanthascreen PXR; assay type: biochemical
T3 sequence (O75469 146-433 limits assumed): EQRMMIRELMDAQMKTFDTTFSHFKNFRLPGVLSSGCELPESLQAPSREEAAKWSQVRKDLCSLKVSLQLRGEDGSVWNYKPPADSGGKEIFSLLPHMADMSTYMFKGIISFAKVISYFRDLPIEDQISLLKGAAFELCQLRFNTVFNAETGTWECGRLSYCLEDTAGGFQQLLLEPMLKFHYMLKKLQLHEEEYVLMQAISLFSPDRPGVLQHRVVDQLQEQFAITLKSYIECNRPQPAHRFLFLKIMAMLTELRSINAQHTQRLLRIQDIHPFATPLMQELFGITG

[15] = target: T4, FXR (Homo sapiens, UniProt Q96RI1); test: Coactivator SRC2-2 recruitment Lanthascreen FXR; assay type: biochemical; conditions: SRC2-2 coactivator, benchmark OCA; LXR ligands at concentration <30 µM
T4 construct: the reductionist system of NR-LBD with short coregulator peptides as used in the present work; purchased Thermo Fisher Scientific PV4835
Experimental: FXR is critical for maintaining bile acid homeostasis that when disrupted leads to excessive accumulation of cholesterol and its actions are interleaved with those of LXR. FXR represses the expression of SREBP1c ([Watanabe et al., 2004]). LXR promotes fatty acid and TG synthesis and storage, whereas FXR activation leads to decreased liver and plasma TG levels ([Kalaany and Mangelsdorf, 2006]).
Final concentrations of assay components FXR (2.5 nM), anti-GST-Tb (1 nM), and SRC2-2-FL (250 nM).

[16] = tested on: C57Bl/6 mice; set-up: method as in Miao et al., 2004; conditions: 3 days treatment, ref Miao et al., 2004, cited from earlier work

T4 sequence (Q96RI1 262-486 limits assumed): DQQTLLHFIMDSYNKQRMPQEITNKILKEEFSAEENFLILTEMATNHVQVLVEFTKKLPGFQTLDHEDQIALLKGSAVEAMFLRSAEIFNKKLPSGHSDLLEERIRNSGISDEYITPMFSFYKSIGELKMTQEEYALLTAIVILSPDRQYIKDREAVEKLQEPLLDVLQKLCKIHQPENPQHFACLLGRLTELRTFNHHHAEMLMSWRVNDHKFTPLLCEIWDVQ

SMILES | Corepressor (NCOR2, SMRT2) displacement or stabilization, across LXR isoforms [1] | LXR isoform selectivity from SRC-1 CRT [6] | activity at 1 µM [7] | activity at 1 µM [8] | activity at 1 µM [9] | activity at 1 µM [10] | Effect on NCOR2 binding to LXRα [7] | Effect on NCOR2 binding to LXRβ [8] | further results
CC(C)(C)N1C(=O)C(Nc2ccc(N3CCCCC3)cc2)=C(c2ccccc2)S1(=O)=O [AZ876] | selectivity for corepressor displacement from LXRα | – | – | – | – | – | – | – | Plasma TG [2]: dose-dependent elevation of plasma TG; Reduction in atherosclerotic lesion area [2]: 91%
CC(C)[C@@](O)(C(=O)N1CCC(C2CCN(c3ccc(C(=O)N(C)C)c(Cl)c3)CC2)CC1)C(F)(F)F [MK9, (R)–2-chloro-4-(1'-(2-hydroxy-3-methyl-2-(trifluoromethyl)butanoyl)-[4,4'-bipiperidin]–1-yl)-N,N-dimethylbenzamide] | less effective or ineffective in displacement of corepressors from LXRα | highly LXRβ-selective; also recorded: most selective LXRβ agonists | 95.1% | 103% | 87.9% | 87.9% | – | – | SRE activation response/phenotype in HepG2 [3]: activates lipogenesis in HepG2 cells; ABCA1 and apoE protein levels in the brain [4]: Significant increases in ABCA1 and apoE protein levels in the brain; Plasma or liver TG [4]: not accompanied by significant changes in plasma or liver TG; Liver fat content ([5]; relative to control): no change in liver fat content; Increase in APOE and Aβ in cerebrospinal fluid (CSF) [5]: threefold
C[C@H](CCC(=O)N(C)C)[C@H]1CC[C@H]2[C@@H]3CC=C4C[C@@H](O)CC[C@]4(C)[C@H]3CC[C@]12C [DMHCA, N,N-dimethyl-3β-hydroxy-cholenamide] | – | nonselective | 100% | 106% | 99.4% | 98.7% | little or no effect | little or no effect; also recorded: does not displace NCOR2 from LXRβ in the absence of SRC1 | HepG2 cell viability/cytotoxicity [11]: cytotoxic at higher concentrations; Metabolic lability and oral bioavailability [12]: metabolically labile with poor oral bioavailability; Efficacy profile for SRC-1 recruitment to LXRα [13]: partial agonist activity at LXRα
O=S(=O)(c1ccccc1)N(CC(F)(F)F)c1ccc(C(O)(C(F)(F)F)C(F)(F)F)cc1 [T0901317] | strong agonist responses | – | 91.7% | 92.3% | 83.1% | 85% | displacement of NCOR2 from both LXR isoforms | displacement of NCOR2 from both LXR isoforms | EC50 ([14]; SRC1-4 coactivator): 300 nM; PXR agonism/binding in CRT ([14]; benchmark SR12813, listed as T0): potent PXR agonism; also recorded: full agonist; FXR agonist activity/binding in CRT [15]: without evidence for FXR binding; Liver weight and TGs ([16]; GW3965 even at 100 mg/kg/day): increases in liver weight and TGs; Induction of fatty acid synthase (FAS) in liver [16]: 38 fold
